Laboratory results from patent publication US20070049564A1 (Wyeth, priority 2005, published 2007).
Converted amounts (≈) assume the structure as drawn. Like-named read-outs stand apart in the source and are kept apart here.

Tests used:
Staph. aureus Smith = experiment: In vivo activity (oral, iv; ED50) against Staph. aureus Smith in mice
E. coli = experiment: Range of MIC for E. coli strains; details: Escherichia coli
E. coli #311 = experiment: In vivo activity (oral, iv; ED50) against E. coli in mice; details: Escherichia coli
Text: . […] Smith and E. Coli #311 in mammals.
Results of the tests (MIC, oral and IV) are list in Table 7.

Staph. = experiment: Range of MIC for Staph. strains, including MRSA; details: Staphylococcus aureus
[1] = Staphylococcus aureus, in Mus musculus, po, read-out: ED50 Staph Smith SOD
[2] = iv, read-out: ED50 Staph Smith SIV
[3] = 20 h, read-out: Range of MIC, E. coli (Mouse Serum)
[4] = read-out: Range of MIC, E. coli (Water)
[5] = single intravenous dose (SIV), read-out: ED50 E. coli #311 SIV
[6] = single oral dose (SOD), read-out: ED50 E. coli #311 SOD
[7] = MRSA, read-out: Range of MIC, Staph (Mouse Serum)
[8] = read-out: Minimum inhibitory concentration (MIC), E. coli (mouse serum)
[9] = read-out: Minimum inhibitory concentration (MIC), E. coli (water)
[10] = MRSA, read-out: Minimum inhibitory concentration (MIC), Staph. (mouse serum)
[11] = MRSA, read-out: Minimum inhibitory concentration (MIC), Staph. (water)
[12] = MRSA, read-out: Range of MIC, Staph (Water)

Row | MIC (E. coli; [3]) | MIC (E. coli; [4]) | MIC (Staph.; [7]) | MIC (Staph.; read-out: Minimum inhibitory concentration (MIC), Staph (Human Serum)) | MIC (E. coli; [8]) | MIC (E. coli; [9]) | MIC (Staph.; [10]) | MIC (Staph.; [11]) | MIC (Staph.; [12]) | MIC (E. coli; read-out: Range of MIC, E. coli (mouse serum)) | MIC (Staph.; MRSA, read-out: Range of MIC, Staph. (mouse serum)) | MIC (Staph.; MRSA, read-out: Range of MIC, Staph. (water)) | Structure (SMILES) | ED50 (Staph. aureus Smith; [1]) | ED50 (Staph. aureus Smith; [2]) | ED50 (E. coli #311; [5]) | ED50 (E. coli #311; [6])
1 | 0.5 to 1 µg/mL (≈ 0.569 to 1.14 µM) | > 64 µg/mL | 0.5 to 1 µg/mL (≈ 0.569 to 1.14 µM) | > 64 µg/mL | – | – | – | – | – | – | – | – | CCCCCCCOc1ccc(C(=O)OCOC(=O)N(CC(=O)Nc2cc(N(C)C)c3c(c2O)C(=O)C2=C(O)[C@]4(O)C(=O)C(C(N)=O)=C(O)[C@@H](N(C)C)[C@@H]4C[C@@H]2C3)C(C)(C)C)cc1 [Example 102, ({[(2-{[(5aR,6aS,7S,10aS)-9-(aminocarbonyl)-4,7-bis(dimethylamino)-1,8,10a,11-tetrahydroxy-10,12-dioxo-5,5a,6,6a,7,10,10a,12-octahydrotetracen-2-yl]amino}-2-oxoethyl)(tert-butyl)amino]carbonyl}oxy)methyl 4-(heptyloxy)benzoate] | 19.8 mg/kg | 1.59 mg/kg | 2 to 4 mg/kg | > 32 mg/kg
2 | 0.25 to 1 µg/mL (≈ 0.293 to 1.17 µM) | > 64 µg/mL | 0.5 to 4 µg/mL (≈ 0.586 to 4.68 µM) | – | – | – | – | – | – | – | – | – | CN(C)c1cc(NC(=O)CN(C(=O)OCOC(=O)C(c2ccccc2)c2ccccc2)C(C)(C)C)c(O)c2c1C[C@H]1C[C@H]3[C@H](N(C)C)C(O)=C(C(N)=O)C(=O)[C@@]3(O)C(O)=C1C2=O [Example 74, ({[(2-{[(5aR,6aS,7S,10aS)-9-(aminocarbonyl)-4,7-bis(dimethylamino)-1,8,10a,11-tetrahydroxy-10,12-dioxo-5,5a,6,6a,7,10,10a,12-octahydrotetracen-2-yl]amino}-2-oxoethyl)(tert-butyl)amino]carbonyl}oxy)methyl diphenylacetate] | > 32 mg/kg | 1.08 mg/kg | > 4 mg/kg | > 32 mg/kg
3 | – | > 64 µg/mL | 4 to 6 µg/mL (≈ 4.91 to 7.37 µM) | – | – | – | – | – | 4 to 8 µg/mL (≈ 4.91 to 9.83 µM) | – | – | – | CN(C)c1cc(NC(=O)CN(C(=O)OCOC(=O)c2ccc3ccccc3c2)C(C)(C)C)c(O)c2c1C[C@H]1C[C@H]3[C@H](N(C)C)C(O)=C(C(N)=O)C(=O)[C@@]3(O)C(O)=C1C2=O [Example 82, ({[(2-{[(5aR,6aS,7S,10aS)-9-(aminocarbonyl)-4,7-bis(dimethylamino)-1,8,10a,11-tetrahydroxy-10,12-dioxo-5,5a,6,6a,7,10,10a,12-octahydrotetracen-2-yl]amino}-2-oxoethyl)(tert-butyl)amino]carbonyl}oxy)methyl 2-naphthoate] | 22 mg/kg | 0.52 mg/kg | – | –

The remaining lines, values behind:

Row | Structure (SMILES) | MIC (E. coli; [3]) | MIC (E. coli; [4]) | MIC (Staph.; [7]) | MIC (Staph.; read-out: Minimum inhibitory concentration (MIC), Staph (Human Serum)) | MIC (E. coli; [8]) | MIC (E. coli; [9]) | MIC (Staph.; [10]) | MIC (Staph.; [11]) | MIC (Staph.; [12]) | MIC (E. coli; read-out: Range of MIC, E. coli (mouse serum)) | MIC (Staph.; MRSA, read-out: Range of MIC, Staph. (mouse serum)) | MIC (Staph.; MRSA, read-out: Range of MIC, Staph. (water)) | ED50 (Staph. aureus Smith; [1]) | ED50 (Staph. aureus Smith; [2]) | ED50 (E. coli #311; [5]) | ED50 (E. coli #311; [6])
4 | CCCCN(CC(=O)Nc1cc(N(C)C)c2c(c1O)C(=O)C1=C(O)[C@]3(O)C(=O)C(C(N)=O)=C(O)[C@@H](N(C)C)[C@@H]3C[C@@H]1C2)C(=O)OCOC(=O)c1ccsc1 [Example 29, ({[(2-{[(5aR,6aS,7S,10aS)-9-(aminocarbonyl)-4,7-bis(dimethylamino)-1,8,10a,11-tetrahydroxy-10,12-dioxo-5,5a,6,6a,7,10,10a,12-octahydrotetracen-2-yl]amino}-2-oxoethyl)(butyl)amino]carbonyl}oxy)methyl thiophene-3-carboxylate] | 0.5 to 1 µg/mL (≈ 0.649 to 1.3 µM) | > 64 µg/mL | 0.25 to 2 µg/mL (≈ 0.325 to 2.6 µM) | – | 0.5 to 1 µg/mL (≈ 0.649 to 1.3 µM) | > 64 µg/mL | 0.25 to 2 µg/mL (≈ 0.325 to 2.6 µM) | 1 to 4 µg/mL (≈ 1.3 to 5.2 µM) | 1 to 4 µg/mL (≈ 1.3 to 5.2 µM) | – | – | – | 13.7 mg/kg | 0.43 mg/kg | – | –
5 | CCCCN(CC(=O)Nc1cc(N(C)C)c2c(c1O)C(=O)C1=C(O)[C@]3(O)C(=O)C(C(N)=O)=C(O)[C@@H](N(C)C)C3CC1C2)C(=O)OCOC(=O)C1CCCCC1 (stereo partly drawn) [Example 34, ({[(2-{[(7S,10aS)-9-(aminocarbonyl)-4,7-bis(dimethylamino)-1,8,10a,11-tetrahydroxy-10,12-dioxo-5,5a,6,6a,7,10,10a,12-octahydrotetracen-2-yl]amino}-2-oxoethyl)(butyl)amino]carbonyl}oxy)methyl cyclohexanecarboxylate] | 0.5 to 1 µg/mL (≈ 0.649 to 1.3 µM) | 4 to 16 µg/mL (≈ 5.2 to 20.8 µM) | 0.25 to 4 µg/mL (≈ 0.325 to 5.2 µM) | – | 0.5 to 1 µg/mL (≈ 0.649 to 1.3 µM) | 4 to 16 µg/mL (≈ 5.2 to 20.8 µM) | 0.25 to 4 µg/mL (≈ 0.325 to 5.2 µM) | 0.25 to 4 µg/mL (≈ 0.325 to 5.2 µM) | 0.25 to 4 µg/mL (≈ 0.325 to 5.2 µM) | – | – | – | 12.9 mg/kg | 0.71 mg/kg | – | –
6 | CCCN(CC(=O)Nc1cc(N(C)C)c2c(c1O)C(=O)C1=C(O)[C@]3(O)C(=O)C(C(N)=O)=C(O)[C@@H](N(C)C)[C@@H]3C[C@@H]1C2)C(=O)OCOC(=O)c1ccco1 [Example 31, ({[(2-{[(5aR,6aS,7S,10aS)-9-(aminocarbonyl)-4,7-bis(dimethylamino)-1,8,10a,11-tetrahydroxy-10,12-dioxo-5,5a,6,6a,7,10,10a,12-octahydrotetracen-2-yl]amino}-2-oxoethyl)(propyl)amino]carbonyl}oxy)methyl 2-furate] | 0.5 to 1 µg/mL (≈ 0.676 to 1.35 µM) | – | 0.25 to 2 µg/mL (≈ 0.338 to 2.7 µM) | – | – | – | – | – | 0.5 to 4 µg/mL (≈ 0.676 to 5.41 µM) | 0.5 to 1 µg/mL (≈ 0.676 to 1.35 µM) | 0.25 to 2 µg/mL (≈ 0.338 to 2.7 µM) | 0.5 to 4 µg/mL (≈ 0.676 to 5.41 µM) | 11.1 mg/kg | 0.31 mg/kg | – | –
